According to patent publication US20070043082A1, “Use of antimuscarinic drugs” (priority 2005, published 2007):
“Also recorded” adds a separate entry of the source.

What was measured:
[1] = system: spontaneous recurrent epileptic seizures (pilocarpine model of epilepsy); test: pilocarpine model of epilepsy in rats: video monitoring of spontaneous epileptic seizures after status epilepticus; type: in vivo, Wistar rats
Text: The current invention was based on an experimental model of epilepsy in which in rats the induction of a brain lesion is accomplished through the administration of pilocarpine, a cholinergic agonist. According to the original description of this model, approximately 20-30 days after pilocarpine injection in either rats or mice, there is the onset of spontaneous recurrent epileptic seizures (Turski W A, Cavalheiro E A, Schwarz M, Czuczwar S J, Kleinrok Z and Turski L. Limbic seizures produced by pilocarpine in rats: behavioural, electroencephalographic and neuropathological study. Behavioral Brain Research, 9:315-335, 1983; Mello L E A M, Cavalheiro E A, Babb T L, Kupfer W R, Pretorius J K, Tan A M and Finch D M. Circuit mechanisms of seizures in the pilocarpine model of chronic epilepsy: cell loss and mossy fiber sprouting. Epilepsia 34:985-995, 1993). Due to its special features the pilocarpine model is currently one of the 3 most widely used experimental models in the study of epilepsy.
(§1) Biperiden, together with atropine, is a classic […] and is known to block muscarinic receptors. These drugs are known by their abilities in blocking the cholinergic transmission which is otherwise mediated through muscarinic receptors. For our experiments we used Wistar, adult, male, rats which were maintained under controlled conditions of temperature, light/dark cycles and kept in groups of up to 6 animals in polypropilene boxes with free access to tap water and rat chow pellets. Rats were subject to the intraperitoneal administration of pilocarpine in a dose of 320 mg/Kg for the induction of status epilepticus.
As expected, the systemic administration of pilocarpine lead to a sequence of behavioral alterations such as akinesia, body tremor and/or myoclonic jerks of the head and oro-facial stereotyped movements accompanied by profuse salivation. Status epilepticus, a condition of uninterrupt epileptic seizure, developed on average 19±5 min after the injection of pilocarpine. Three hours after the onset of status epilepticus the animals in the experimental group (n=10) were intraperitoneally injected with the first initial dose of biperiden (8 mg/kg). This dose represents the concentration needed to provoke memory impairments in rodents, (Roldan G, Bolanos-Badillo E, Gonzales-Sanches H, Quirarte G L and Prado-Alcala R A J W. Selective M1 muscarinic receptor antagonists disrupt memory consolidation of inhibitory avoidance in rats. Neurosci. Lett., 230:93-6, 1997).
For the animals in the control group (n=6), […] after the onset of status epileticus, administration of sterile saline solution (0.9% NaCl), rather than biperiden, was started with a similar protocol.
In the pilocarpine model of epilepsy, a few weeks after the administration of pilocarpine and the induction of status epilepticus, the animals develop spontaneous epileptic seizures which recur for as long as the animal are allowed to live. It is assumed that such epileptic condition adequately mimics some types of epileptic seizures in humans and may closely reflect the sequence of events that take place in post-traumatic epilepsies.
Approximately 15 to 20 days after the induction of status epilepticus, the reported duration of the latent period for the onset of spontaneous seizures, monitoring of the behavioral seizures with a videocamera for approximately 12 hours/week was initiated. Based on our initial hypothesis, that the experimental group (treated with biperiden) would either have a substantial reduction or would show no spontaneous epileptic seizures, and therefore to avoid a false negative result, the sampling rate for video monitoring of these animals was performed for 24 hours/week. Animals were video monitored for approximately 120 days after the induction of status epilepticus. The recorded video tapes were routinely assessed in a 29 inches wide television screen and the seizures observed for each animal were recorded.

[2] = species and source not stated; cited from earlier work
status epilepticus = test: induction of status epilepticus by systemic pilocarpine; type: in vivo, Wistar rats; conditions: pilocarpine 320 mg/Kg intraperitoneal; average
Text: as §1
As expected, the systemic administration of pilocarpine lead to a sequence of behavioral alterations such as akinesia, body tremor and/or myoclonic jerks of the head and oro-facial stereotyped movements accompanied by profuse salivation. Status epilepticus, a condition of uninterrupt epileptic seizure, developed on average 19±5 min after the injection of pilocarpine. Three hours after the onset of status epilepticus the animals in the experimental group (n=10) were intraperitoneally injected with the first initial dose of biperiden (8 mg/kg). […]

Row | Structure (SMILES) | Length of the latent period for the onset of the first recorded spontaneous epileptic seizure, Latency ([1]; biperiden 8 mg/kg i.p. every 8 hours for 10 days, started 3 h after onset of status epilepticus, n=10, mean ± standard deviation, p < 0.03 vs control (Mann-Whitney)) [weeks] | Frequency of spontaneous epileptic seizures, Spontaneous seizures/h ([1]; biperiden 8 mg/kg i.p. every 8 hours for 10 days, n=10, monitored about 120 days, mean ± standard deviation, p < 0.02 vs control (Mann-Whitney)) [seizures/h] | frequency of epileptic seizures in animals that developed seizures (in words) ([1]; compared to animals not treated with biperiden) | mean frequency of spontaneous epileptic seizures of the control group relative to the experimental group ([1]; control (saline) vs experimental (treated with biperiden)) [times] | qualitative or quantitative nature of each individual seizure, difference between the two groups ([1]; experimental (biperiden) vs control) | mean latency of the experimental group relative to the control group ([1]; experimental (biperiden) vs control (saline)) | onset of spontaneous recurrent seizures, i.e., epilepsy (in words) ([1]; prophylactic use after pilocarpine lesion) | half-life [2] [h] | time to development of status epilepticus after injection (status epilepticus) [min]
1 | OC(CCN1CCCCC1)(c1ccccc1)C1CC2C=CC1C2 (stereo not drawn) [biperiden] | 6.0±1.1 | 0.0202 ± 0.0047 | significantly lesser frequency | 2 | no differences | two times greater; also recorded: twice that of the control group | significantly retarded or even suppressed | 24 ± 1.2 | –
2 | CC[C@@H]1C(=O)OC[C@@H]1Cc1cncn1C [pilocarpine] | – | – | – | – | – | – | – | – | 19 ± 5
